The values below are quoted from earlier work in patent publication US6197304A, “Whitening cosmetics containing solvent-fractionated extracts of ramulus mori extract” (priority 1997, dated 2001).

“Also recorded” adds a separate entry of the source.

Data set [1] concerns tyrosinase. Particulars: prior art.
Data set [2] relates to skin. Particulars: prior art.

Consider `O=C1O[C@H]([C@@H](O)CO)C(O)=C1O` [Ascorbic acid, ascorbic acid], for which the “tyrosinase inhibition / whitening activity (in words)” value in data set [1] is “relatively low activity of inhibiting tyrosinase”.

With `O=c1cc(CO)occ1O` [Comparative 3, kojic acid], the “tyrosinase inhibition / whitening activity (in words)” value in data set [1] was “high activity; also recorded: relatively high whitening effect”.

On to `Oc1ccc(O)cc1` [Hydroquinone, hydroquinone], for which, in data set [2], the “skin irritation (in words)” value was “irritates the skin strongly”.
